Assay: xn = mol fraction of the nth substance listed
Settings: 100 kPa

CC[N+](CC)(CC)CC.O=S(=O)([O-])C(F)(F)F + CC#N
electrical conductivity [S/m]
Settings | x1 = 0.02 | x1 = 0.05 | x1 = 0.08 | x1 = 0.0997 | x1 = 0.1199 | x1 = 0.1498 | x1 = 0.2 | x1 = 0.25 | x1 = 0.2995
293.15 K | – | – | 4.63 | 4.72 | 4.54 | 4.22 | 3.51 | 2.89 | 2.58
298.15 K | 2.66 | 4.19 | 4.71 | – | 4.7 | 4.38 | 3.62 | 3.14 | 2.82
303.15 K | 2.77 | 4.39 | 4.84 | 5 | 4.96 | 4.48 | 3.78 | 3.39 | 3.08
308.15 K | 2.87 | 4.57 | 5.08 | 5.24 | 5.22 | – | 4.06 | 3.65 | 3.35
313.15 K | 2.97 | 4.76 | 5.31 | 5.49 | 5.48 | 5.04 | 4.34 | 3.91 | 3.62
318.15 K | 3.08 | – | 5.54 | 5.73 | 5.74 | 5.32 | 4.61 | 4.17 | –
323.15 K | 3.18 | 5.11 | 5.77 | 5.98 | 5.99 | 5.6 | 4.89 | 4.44 | –
328.15 K | 3.28 | 5.29 | 6 | 6.22 | 6.25 | 5.88 | 5.17 | 4.7 | 4.44
333.15 K | 3.38 | 5.46 | 6.23 | 6.45 | 6.5 | 6.15 | – | – | –
338.15 K | 3.47 | 5.64 | 6.45 | 6.69 | 6.76 | 6.42 | 5.72 | 5.22 | 5.01
343.15 K | 3.58 | 5.81 | 6.67 | 6.92 | 7.02 | 6.7 | 6 | 5.5 | 5.28
348.15 K | – | 5.97 | – | 7.16 | 7.27 | – | 6.26 | 5.77 | 5.55
